Tests used:
LTA4-h hydrolase = molecular target: T1, LTA4-h hydrolase (Homo sapiens, UniProt P09960); assay: Whole blood assay (WBA); format: cell-based
T1 construct: endogenous in cells; host or cells: whole blood
T1 sequence (P09960 1-611): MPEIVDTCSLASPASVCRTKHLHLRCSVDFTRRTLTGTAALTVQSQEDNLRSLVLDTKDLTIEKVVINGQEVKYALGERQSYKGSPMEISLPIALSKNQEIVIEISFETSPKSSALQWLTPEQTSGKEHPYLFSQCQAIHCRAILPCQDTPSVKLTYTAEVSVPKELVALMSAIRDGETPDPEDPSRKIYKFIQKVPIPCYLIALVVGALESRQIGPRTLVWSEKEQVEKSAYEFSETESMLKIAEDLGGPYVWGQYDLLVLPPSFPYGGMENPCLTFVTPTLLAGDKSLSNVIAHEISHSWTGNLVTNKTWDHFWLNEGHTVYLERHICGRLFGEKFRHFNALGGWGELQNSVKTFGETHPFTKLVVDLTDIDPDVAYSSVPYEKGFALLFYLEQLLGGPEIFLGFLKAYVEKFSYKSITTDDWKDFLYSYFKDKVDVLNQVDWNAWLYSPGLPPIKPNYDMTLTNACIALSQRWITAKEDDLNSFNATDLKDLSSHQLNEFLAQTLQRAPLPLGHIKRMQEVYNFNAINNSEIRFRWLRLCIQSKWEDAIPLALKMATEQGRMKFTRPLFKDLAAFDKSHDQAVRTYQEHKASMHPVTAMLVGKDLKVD
Description: Compounds of the invention can also be tested for their ability as inhibitors of LTA4-h hydrolase in the whole blood assay using human, mouse, rat or dog whole blood (see Penning, T. D. et al., J. Med. Chem. (2000), 43(4): 721-735 for a description of a human whole blood assay and a mouse whole blood assay, the contents of which are expressly incorporated herein). […] The whole blood and aminopeptidase assays were performed as described in Penning et al., J. Med. Chem. 2000, 43, 721-735, and Rudberg et al., J. Biol. Chem. Vol. 279, No. 26, Issue of June 25, pp. 27376-27382, 2004, the contents of each of which are expressly incorporated by reference herein. The hydrolase assay was performed as described in U.S. Pat. No. 7,737,145, the contents of which are expressly incorporated herein.

LTA4-h [1] = molecular target: T2, LTA4-h (Homo sapiens, UniProt P09960); assay: Peptidase (aminopeptidase) assay; format: biochemical; details: for inhibition at 3 µM: read-out: Peptidase % inhibition
T2 sequence (P09960 1-611): T1 sequence (P09960 1-611)
Description: Since LTA4-h hydrolase is grouped with the M1 family of zinc metalloproteases (see, Rudberg, P. C. et al., J. Biol. […] The whole blood and aminopeptidase assays were performed as described in Penning et al., J. Med.

LTA4-h [2] = molecular target: T2, LTA4-h; assay: Hydrolase assay (hydrolase-homogeneous time resolved fluorescence, LTB4 produced); format: biochemical
Excerpt: The compounds of the invention can be tested for their ability to inhibit LTA4-h by various known assays and by assays described herein. For example, the compounds can be tested for their ability to inhibit LTA4-h activity by assaying the compounds in the hydrolase-homogeneous time resolved fluoroescence assay. This assay, which is a two-step assay, measures the hydrolysis of […] to LTB4 by analyzing the amount of LTB4 produced. The first step involves the enzymatic conversion of […] to LTB4 and the second step involves the quantification of the […] with a homogeneous time resolved fluoroescence assay.
The whole blood and aminopeptidase assays were performed as described in Penning et al., J. Med. Chem. 2000, 43, 721-735, and Rudberg et al., J. Biol. Chem. Vol. 279, No. 26, Issue of June 25, pp. 27376-27382, 2004, the contents of each of which are expressly incorporated by reference herein. The hydrolase assay was performed as described in U.S. Pat. No. 7,737,145, the contents of which are expressly incorporated herein.

Row | Compound | IC50 (LTA4-h hydrolase) | IC50 (LTA4-h [1]) | IC50 (LTA4-h [2]) | other results
1 | O=C(O)CN(CC1CCNC1)c1ccc(Oc2ccc(Cl)cc2)cc1 (stereo not shown) [Compound 29] | 920 nM | 22 nM | 320 nM | –
2 | CC(C)(C)OC(=O)N1CCC(CN(Cc2ccc(S(N)(=O)=O)cc2)c2ccc(Oc3ccc(Cl)cc3)cc2)C1 (stereo not shown) [Compound 32] | 2800 nM | 12 nM | 1300 nM | –
3 | COC(=O)c1ccc(CN(CC2CCN(C(=O)OC(C)(C)C)C2)c2ccc(Oc3ccc(Cl)cc3)cc2)cc1 (stereo not shown) [Compound 9] | – | – | – | inhibition at 3 µM (LTA4-h [1]; at 3 uM): 56%
4 | CN1CCC(CN(Cc2ccc(F)cc2)c2ccc(Oc3ccc(Cl)cc3)cc2)C1 (stereo not shown) [Compound 20] | 950 nM | 165 nM | 140 nM | –
5 | CC(C)(C)OC(=O)N1CCC(CN(Cc2ccc([N+](=O)[O-])cc2)c2ccc(Oc3ccc(Cl)cc3)cc2)C1 (stereo not shown) [Compound 39] | – | – | – | inhibition at 3 µM (LTA4-h [1]): 19%
6 | COC(=O)c1ccc(CN(CC2CCN(C)C2)c2ccc(Oc3ccc(Cl)cc3)cc2)cc1 (stereo not shown) [Compound 12] | 240 nM | 150 nM | 70 nM | –
7 | O=C(O)c1ccc(CN2CCC(CN(Cc3ccccc3)c3ccc(Oc4ccc(Cl)cc4)cc3)C2)cc1 (stereo not shown) [Compound 25] | 520 nM | 370 nM | 1550 nM | –
8 | COC(=O)c1ccc(CN(CC2CCN(Cc3ccccc3)C2)c2ccc(Oc3ccc(Cl)cc3)cc2)cc1 (stereo not shown) [Compound 14] | – | 200 nM | – | –
9 | COC(=O)c1coc(CN(CC2CCNC2)c2ccc(Oc3ccc(Cl)cc3)cc2)n1 (stereo not shown) [Compound 40] | – | 125 nM | – | –
10 | COC(=O)c1ccc(CN(CC2CNC2)c2ccc(Oc3ccc(Cl)cc3)cc2)cc1 [Compound 28] | 800 nM | 46 nM | 170 nM | –
11 | COC(=O)c1ccc(CN2CCC(CN(Cc3ccccc3)c3ccc(Oc4ccc(Cl)cc4)cc3)C2)cc1 (stereo not shown) [Compound 23] | – | – | – | inhibition at 3 µM (LTA4-h [1]; at 3 uM): 40%
12 | CC(C)(C)OC(=O)N1CCC[C@H]1CN(Cc1ccc(S(N)(=O)=O)cc1)c1ccc(Oc2ccc(Cl)cc2)cc1 [Compound 43] | – | – | – | inhibition at 1 µM (LTA4-h [1]; at 1 uM): 0%
13 | O=C(O)c1ccc(CN(CC2CCN(Cc3ccccc3)C2)c2ccc(Oc3ccc(Cl)cc3)cc2)cc1 (stereo not shown) [Compound 17] | – | 1500 nM | – | –
14 | NS(=O)(=O)c1ccc(CN(CC2CCNC2)c2ccc(Oc3ccc(Cl)cc3)cc2)cc1 (stereo not shown) [Compound 38] | – | 26 nM | 12 nM | –
15 | COC(=O)c1cccc(CN(CC2CCN(C(=O)OC(C)(C)C)C2)c2ccc(Oc3ccc(Cl)cc3)cc2)c1 (stereo not shown) [Compound 33] | – | – | – | inhibition at 3 µM (LTA4-h [1]; at 3 uM): 22%
16 | O=C(O)c1ccc(CN(CC2CCNC2)c2ccc(Oc3ccc(Cl)cc3)cc2)cc1 (stereo not shown) [Compound 11] | 670 nM | 140 nM | 70 nM | –
17 | CC(C)(C)OC(=O)CN(CC1CCN(C(=O)OC(C)(C)C)C1)c1ccc(Oc2ccc(Cl)cc2)cc1 (stereo not shown) [Compound 27] | – | – | – | inhibition at 3 µM (LTA4-h [1]; at 3 uM): 7%
18 | O=C(O)c1cccc(CN(CC2CCNC2)c2ccc(Oc3ccc(Cl)cc3)cc2)c1 (stereo not shown) [Compound 36] | – | 60 nM | 12 nM | –
19 | NS(=O)(=O)c1ccc(CN(C[C@@H]2CCCN2)c2ccc(Oc3ccc(Cl)cc3)cc2)cc1 [Compound 44] | – | 110 nM | – | –
20 | O=C(O)c1ccc(CN2CCC(CN(Cc3ccc(F)cc3)c3ccc(Oc4ccc(Cl)cc4)cc3)C2)cc1 (stereo not shown) [Compound 24] | – | 530 nM | 870 nM | –
21 | COC(=O)c1cccc(CN(CC2CCNC2)c2ccc(Oc3ccc(Cl)cc3)cc2)c1 (stereo not shown) [Compound 34] | – | 62 nM | – | –

Row | Compound | IC50 (LTA4-h hydrolase) | IC50 (LTA4-h [1]) | IC50 (LTA4-h [2]) | other results
22 | COC(=O)c1ccc(CN(CC2CN(C(=O)OC(C)(C)C)C2)c2ccc(Oc3ccc(Cl)cc3)cc2)cc1 [Compound 26] | – | – | – | inhibition at 3 µM (LTA4-h [1]; at 3 uM): 42%
23 | CN1CCC(CN(Cc2ccc(C(=O)O)cc2)c2ccc(Oc3ccc(Cl)cc3)cc2)C1 (stereo not shown) [Compound 15] | 560 nM | 290 nM | 470 nM | –
24 | Clc1ccc(Oc2ccc(NC3CNC3)cc2)cc1 [Compound 5] | 920 nM | 31 nM | 300 nM | –
25 | O=C(O)c1ccc(CN(CC2CNC2)c2ccc(Oc3ccc(Cl)cc3)cc2)cc1 [Compound 30] | 1600 nM | 240 nM | 1000 nM | –
26 | COC(=O)c1cccc(CN(CC2CNC2)c2ccc(Oc3ccc(Cl)cc3)cc2)c1 [Compound 35] | – | 33 nM | – | –
27 | O=C(O)c1ccc(CN(CC2CCN(Cc3ccc(F)cc3)C2)c2ccc(Oc3ccc(Cl)cc3)cc2)cc1 (stereo not shown) [Compound 16] | – | 1600 nM | 2200 nM | –
28 | O=C(O)c1ccc(CN2CC(Nc3ccc(Oc4ccc(Cl)cc4)cc3)C2)cc1 [Compound 7] | 57 nM | 4 nM | 5 nM | –
29 | COC(=O)c1ccc(CN2CCC(CN(Cc3ccc(F)cc3)c3ccc(Oc4ccc(Cl)cc4)cc3)C2)cc1 (stereo not shown) [Compound 22] | – | – | – | inhibition at 3 µM (LTA4-h [1]; at 3 uM): 59%
30 | COC(=O)c1ccc(CN(CC2CCN(Cc3ccc(F)cc3)C2)c2ccc(Oc3ccc(Cl)cc3)cc2)cc1 (stereo not shown) [Compound 13] | 2770 nM | 100 nM | – | –
31 | Clc1ccc(Oc2ccc(NCC3CCCCN3)cc2)cc1 (stereo not shown) [Compound 2] | 880 nM | 72 nM | 190 nM | –
32 | Clc1ccc(Oc2ccc(NCC3CCNC3)cc2)cc1 (stereo not shown) [Compound 1] | 510 nM | 45 nM | 26 nM | –
33 | O=C(O)c1cccc(CN(CC2CNC2)c2ccc(Oc3ccc(Cl)cc3)cc2)c1 [Compound 37] | – | 35 nM | 62 nM | –
34 | COC(=O)c1cccc(CN(CC2CN(C(=O)OC(C)(C)C)C2)c2ccc(Oc3ccc(Cl)cc3)cc2)c1 [Compound 31] | – | 76 nM | – | inhibition at 3 µM (LTA4-h [2]; at 3 uM): > 5%
35 | Clc1ccc(Oc2ccc(NCC3CNC3)cc2)cc1 [Compound 4] | 90 nM | 1.7 nM | 7.9 nM | –
36 | Clc1ccc(Oc2ccc(NC3CC4CCC(C3)N4)cc2)cc1 (stereo not shown) [Compound 6] | 1900 nM | 160 nM | 360 nM | –
37 | CC(C)(C)OC(=O)N1CCC(CN(Cc2ccc(F)cc2)c2ccc(Oc3ccc(Cl)cc3)cc2)C1 (stereo not shown) [Compound 19] | – | – | – | inhibition at 3 µM (LTA4-h [1]; at 3 uM): 47%
38 | O=C(O)c1ccc(CN2CCC(CN(Cc3ccc(C(=O)O)cc3)c3ccc(Oc4ccc(Cl)cc4)cc3)C2)cc1 (stereo not shown) [Compound 3] | > 3000 nM | 88 nM | 300 nM | –
39 | Clc1ccc(Oc2ccc(NC[C@@H]3CCCN3)cc2)cc1 [Compound 42] | – | 70 nM | – | –
40 | COC(=O)c1ccc(CN(CC2CCNC2)c2ccc(Oc3ccc(Cl)cc3)cc2)cc1 (stereo not shown) [Compound 10] | 260 nM | 13 nM | 22 nM | –
41 | CC(C)(C)OC(=O)N1CCC(CN(Cc2ccccc2)c2ccc(Oc3ccc(Cl)cc3)cc2)C1 (stereo not shown) [Compound 18] | – | – | – | inhibition at 3 µM (LTA4-h [1]; at 3 uM): 0%
